Test results reported in ChEMBL document CHEMBL6078642, “Design, Synthesis, and Activity Evaluation of BRD4 PROTAC Based on Alkenyl Oxindole-DCAF11 Pair” (J Med Chem, 2024).
The source made the active and inactive calls. The calls are words filed in the database; no cut-off is given here.

Experiments:
MDA-MB-468 = assay: Antiproliferative activity against human MDA-MB-468 cells assessed as reduction in cell viability incubated for 2 days by CCK8 assay; type: functional, cell-based; conditions: MDA-MB-468, 48 h
MDA-MB-231 [1] = assay: Antiproliferative activity against human MDA-MB-231 cells assessed as reduction in cell viability incubated for 2 days by CCK8 assay; type: functional, cell-based; conditions: MDA-MB-231, 48 h
HEK293T [2] = assay: Induction of BRD4 BD1 domain (unknown origin) degradation expressed in DCAF11 knockout HEK293T cells assessed as decrease in red fluorescence at 1 uM incubated for 12 hrs by dual fluorescence reporter cell based high content imaging analysis; conditions: Homo sapiens
DCAF11-BRD4 [3] = target: T1, DCAF11-BRD4 (Homo sapiens, UniProt O60885+Q8TEB1); assay: PROTAC activity at DCAF11/BRD4 BD1 domain (unknown origin) expressed in HEK293T cells assessed as induction of BRD4 degradation at 1 uM incubated for 12 hrs by Dual fluorescence reporter cell high content imaging analysis relative to control; type: cell-based
DCAF11-BRD4 [4] = target: T1, DCAF11-BRD4; assay: PROTAC activity at DCAF11/BRD4 in human T47D cells assessed as induction of BRD4 degradation at 1 uM incubated for 12 hrs by immunoblot analysis; type: cell-based
DCAF11-BRD4 [5] = target: T1, DCAF11-BRD4; assay: PROTAC activity at DCAF11/BRD4 in human MDA-MB-231 cells assessed as induction of BRD4 degradation at 1 uM incubated for 12 hrs in presence of tert-butyl 2-(4-methyl-2-((2-oxo-6-(trifluoromethyl)indolin-3-ylidene)methyl)phenoxy)acetate by immunoblot analysis; type: cell-based
MDA-MB-231 [6] = assay: Inhibition of cell migration in human MDA-MB-231 cells at 0.1 to 1 uM measured after 48 hrs by crystal violet staining based transwell migration assay; type: functional; conditions: dose 0.1-1 µM
MDA-MB-157 = assay: Antiproliferative activity against human MDA-MB-157 cells assessed as reduction in cell viability incubated for 2 days by CCK8 assay; type: functional, cell-based; conditions: MDA-MB-157, 48 h
DCAF11-BRD4 [7] = target: T1, DCAF11-BRD4; assay: PROTAC activity at DCAF11/BRD4 in human MDA-MB-468 cells assessed as induction of BRD4 degradation at 1 uM incubated for 12 hrs by immunoblot analysis; type: cell-based
DCAF11-BRD4 [8] = target: T1, DCAF11-BRD4; assay: PROTAC activity at DCAF11/BRD4 in human HCC1937 cells assessed as induction of BRD4 degradation at 1 uM incubated for 12 hrs by immunoblot analysis; type: cell-based
DCAF11-BRD4 [9] = target: T1, DCAF11-BRD4; assay: PROTAC activity at DCAF11/BRD4 in human MDA-MB-231 cells assessed as induction of BRD4 degradation at 1 uM incubated for 12 hrs in presence of JQ1 by immunoblot analysis; type: cell-based
MDA-MB-231 [10] = assay: Downregulation of BRD4 protein expression in human MDA-MB-231 cells at 1 uM incubated for 6 hrs by proteomic analysis; type: functional, cell-based
DCAF11-BRD4 [11] = target: T1, DCAF11-BRD4; assay: PROTAC activity at DCAF11/BRD4 in human MCF7 cells assessed as induction of BRD4 degradation at 1 uM incubated for 12 hrs by immunoblot analysis; type: cell-based
T47D = assay: Antiproliferative activity against human T47D cells assessed as reduction in cell viability incubated for 2 days by CCK8 assay; type: functional, cell-based; conditions: 48 h
DCAF11-BRD4 [12] = target: T1, DCAF11-BRD4; assay: PROTAC activity at DCAF11/BRD4 in human MDA-MB-231 cells assessed as induction of BRD4 degradation at 1 uM preincubated with bortezomib for 1 hrs and measured after compound addition by immunoblot analysis; type: cell-based
DCAF11-BRD4 [13] = target: T1, DCAF11-BRD4; assay: PROTAC activity at DCAF11/BRD4 in human MDA-MB-231 cells assessed as induction of BRD4 degradation by immunoblot analysis; type: cell-based
DCAF11-BRD4 [14] = target: T1, DCAF11-BRD4; assay: PROTAC activity at DCAF11/BRD4 in human MDA-MB-231 cells assessed as induction of BRD4 degradation at 1 uM preincubated with MLN4924 for 1 hrs and measured after compound addition by immunoblot analysis; type: cell-based
MCF7 = assay: Antiproliferative activity against human MCF7 cells assessed as reduction in cell viability incubated for 2 days by CCK8 assay; type: functional, cell-based; conditions: MCF7, 48 h
DCAF11-BRD4 [15] = target: T1, DCAF11-BRD4; assay: PROTAC activity at DCAF11/BRD4 in human MDA-MB-231 cells assessed as induction of BRD4 degradation at 1 uM preincubated with chloroquine for 1 hrs and measured after compound addition by immunoblot analysis; type: cell-based
DCAF11-BRD4 [16] = target: T1, DCAF11-BRD4; assay: PROTAC activity at DCAF11/BRD4 in human MDA-MB-231 cells assessed as induction of BRD4 degradation incubated for 12 hrs by immunoblot analysis; type: cell-based; conditions: dose 0.1-1000 nM
MDA-MB-231 [17] = assay: Induction of apoptosis in human MDA-MB-231 cells assessed as increase in cleaved PARP level by immunoblot analysis; type: functional, cell-based
DCAF11-BRD4 [18] = target: T1, DCAF11-BRD4; assay: PROTAC activity at DCAF11/BRD4 in human MDA-MB-231 cells assessed as induction of BRD4 degradation at 10 nM incubated for 12 hrs by immunoblot analysis; type: cell-based
MDA-MB-231 [19] = assay: Effect on BRD4 mRNA gene expression in human MDA-MB-231 cells at 0.1 to 1 microM incubated for 12 hrs by qPCR analysis; type: functional, cell-based; conditions: dose 0.1-1 µM
DCAF11-BRD4 [20] = target: T1, DCAF11-BRD4; assay: PROTAC activity at DCAF11/BRD4 in human MDA-MB-231 cells assessed as induction of BRD4 degradation at 1 to 100 nM incubated for 1 hrs by Western blot analysis; type: cell-based; conditions: dose 1-100 nM
DCAF11-BRD4 [21] = target: T1, DCAF11-BRD4; assay: PROTAC activity at DCAF11/BRD4 in human MDA-MB-231 cells assessed as induction of BRD4 degradation at 1 uM preincubated with bafilomycin A1 for 1 hrs and measured after compound addition by immunoblot analysis; type: cell-based
DCAF11-BRD4 [22] = target: T1, DCAF11-BRD4; assay: PROTAC activity at DCAF11/BRD4 in human MDA-MB-231 cells assessed as induction of BRD4 degradation at 10 to 100 nM incubated for 1 hrs by immunoblot analysis; type: cell-based; conditions: dose 10-100 nM
DCAF11-BRD4 [23] = target: T1, DCAF11-BRD4; assay: Binding affinity to DCAF11/BRD4 BD1 domain in HEK293T cells by co-immunoprecipitation analysis; type: cell-based
DCAF11-BRD4 [24] = target: T1, DCAF11-BRD4; assay: PROTAC activity at DCAF11/BRD4 in human MDA-MB-231 cells assessed as induction of BRD4 degradation at 1 uM preincubated with MG132 for 1 hrs and measured after compound addition by immunoblot analysis; type: cell-based
DCAF11-BRD4 [25] = target: T1, DCAF11-BRD4; assay: PROTAC activity at DCAF11/BRD4 in human MDA-MB-157 cells assessed as induction of BRD4 degradation at 1 uM incubated for 12 hrs by immunoblot analysis; type: cell-based
MDA-MB-231 [26] = assay: Induction of apoptosis in human MDA-MB-231 cells assessed as increase in cleaved caspase-7 level by immunoblot analysis; type: functional, cell-based
DCAF11-BRD4 [27] = target: T1, DCAF11-BRD4; assay: PROTAC activity at DCAF11/BRD4 in human BT-549 cells assessed as induction of BRD4 degradation at 1 uM incubated for 12 hrs by immunoblot analysis; type: cell-based
DCAF11-BRD4 [28] = target: T1, DCAF11-BRD4; assay: Binding affinity to HA-tagged DCAF11/Flag-tagged BRD4 BD1 domain (unknown origin) expressed in HEK293T cells by co-immunoprecipitation analysis; type: cell-based
DCAF11-BRD4 [29] = target: T1, DCAF11-BRD4; assay: PROTAC activity at DCAF11/BRD4 BD1 domain (unknown origin) expressed in HEK293T cells assessed as induction of BRD4 degradation at 10 to 100 nM incubated for 12 hrs by Dual fluorescence reporter cell high content imaging analysis; type: cell-based; conditions: dose 10-100 nM
DCAF11-BRD4 [30] = target: T1, DCAF11-BRD4; assay: PROTAC activity at DCAF11/BRD4 in human MDA-MB-231 cells assessed as induction of BRD4 degradation at 1 uM preincubated with PYR41 for 1 hrs and measured after compound addition by immunoblot analysis; type: cell-based
BT-549 = assay: Antiproliferative activity against human BT-549 cells assessed as reduction in cell viability incubated for 2 days by CCK8 assay; type: functional, cell-based; conditions: BT-549, 48 h
HCC1937 = assay: Antiproliferative activity against human HCC1937 cells assessed as reduction in cell viability incubated for 2 days by CCK8 assay; type: functional, cell-based; conditions: HCC1937, 48 h
HEK293T [31] = assay: Induction of BRD4 BD1 domain (unknown origin) degradation expressed in DCAF11 knockout HEK293T cells at 1 uM incubated for 12 hrs by immunoblot analysis; type: cell-based; conditions: Homo sapiens
DCAF11-BRD4 [32] = target: T1, DCAF11-BRD4; assay: PROTAC activity at DCAF11/BRD4 in human MDA-MB-231 cells assessed as induction of BRD4 degradation at 1 uM measured within 1 hrs by immunoblot analysis; type: cell-based

T1 sequence (Q8TEB1 whole entry, looked up, other chains not shown, the tested form may be a part): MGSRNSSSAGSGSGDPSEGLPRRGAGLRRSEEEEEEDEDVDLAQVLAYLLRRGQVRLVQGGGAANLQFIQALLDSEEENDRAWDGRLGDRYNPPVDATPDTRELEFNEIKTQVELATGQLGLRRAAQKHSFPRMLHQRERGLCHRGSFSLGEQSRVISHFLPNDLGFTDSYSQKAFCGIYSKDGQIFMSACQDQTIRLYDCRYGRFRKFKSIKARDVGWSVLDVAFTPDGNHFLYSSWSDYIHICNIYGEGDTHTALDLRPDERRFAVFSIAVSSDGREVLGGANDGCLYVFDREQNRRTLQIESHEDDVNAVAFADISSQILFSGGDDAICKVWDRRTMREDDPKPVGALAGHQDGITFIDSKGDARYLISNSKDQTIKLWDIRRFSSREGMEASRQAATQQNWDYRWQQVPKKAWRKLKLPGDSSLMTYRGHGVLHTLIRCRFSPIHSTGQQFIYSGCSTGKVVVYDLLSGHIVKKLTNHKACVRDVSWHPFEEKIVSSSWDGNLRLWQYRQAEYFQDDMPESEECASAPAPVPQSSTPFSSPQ

`Cc1ncsc1-c1ccc(CNC(=O)[C@@H]2C[C@@H](O)CN2C(=O)[C@@H](NC(=O)COCCOCCOCCNC(=O)C[C@@H]2N=C(c3ccc(Cl)cc3)c3c(sc(C)c3C)-n3c(C)nnc32)C(C)(C)C)cc1` gave an IC50 (MDA-MB-468) of 1200 nM and an IC50 (MDA-MB-231 [1]) of 20 nM.

For `Cc1sc2c(c1C)C(c1ccc(Cl)cc1)=N[C@@H](CC(=O)NCCCOCCOCCOCCCNC(=O)COc1ccc(Br)cc1/C=C1\C(=O)Nc3cc(C(F)(F)F)ccc31)c1nnc(C)n1-2`, the Activity (HEK293T [2]) was “inactive”.

For `Cc1sc2c(c1C)C(c1ccc(Cl)cc1)=N[C@@H](CC(=O)NCCCOCCOCCOCCCNC(=O)c1ccsc1/C=C1/C(=O)Nc3cc(C(F)(F)F)ccc31)c1nnc(C)n1-2`, the Activity (HEK293T [2]) was “inactive”.

`Cc1sc2c(c1C)C(c1ccc(Cl)cc1)=N[C@@H](CC(=O)NCCCOc1c(Br)cc(Br)c(/C=C3/C(=O)Nc4cc(C(F)(F)F)ccc43)c1Br)c1nnc(C)n1-2` was tested, and the Activity (HEK293T [2]) was “inactive”.

For `Cc1sc2c(c1C)C(c1ccc(Cl)cc1)=N[C@@H](CC(=O)NCCCOc1ccc(Br)cc1/C=C1/C(=O)Nc3cc(C(F)(F)F)ccc31)c1nnc(C)n1-2`, the Activity (DCAF11-BRD4 [3]) was over 35% and the Activity (HEK293T [2]) was “inactive”.

In the case of `Cc1sc2c(c1C)C(c1ccc(Cl)cc1)=N[C@@H](CC(=O)NCCCOc1cccc(/C=C3/C(=O)Nc4cc(C(F)(F)F)ccc43)c1)c1nnc(C)n1-2`, the Activity (DCAF11-BRD4 [3]) is reported as over 35% and the Activity (HEK293T [2]) is reported as “inactive”.

For `Cc1ccc(OCC(=O)NCCCOCCOCCOCCCNC(=O)C[C@@H]2N=C(c3ccc(Cl)cc3)c3c(sc(C)c3C)-n3c(C)nnc32)c(/C=C2\C(=O)Nc3cc(C(F)(F)F)ccc32)c1` (stereo in doubt), the Activity (DCAF11-BRD4 [4]) was “Active”, the Activity (DCAF11-BRD4 [3]) was over 35% and the Activity (HEK293T [2]) was “inactive”. For the same molecule, the Activity (DCAF11-BRD4 [5]) was “inactive”, the inhibition (MDA-MB-231 [6]) was “Active” and the IC50 (MDA-MB-157) was 100 nM. The Activity (DCAF11-BRD4 [7]) was “Active”, the Activity (DCAF11-BRD4 [8]) was “Active” and the Activity (DCAF11-BRD4 [9]) was “inactive”. The Activity (MDA-MB-231 [10]) was “Active”, the Activity (DCAF11-BRD4 [11]) was “Active” and the IC50 (T47D) was 630 nM. For the same molecule, the Activity (DCAF11-BRD4 [12]) was “inactive”, the DC50 (DCAF11-BRD4 [13]) was 7.36 nM and the Activity (DCAF11-BRD4 [14]) was “inactive”. For the same molecule, the IC50 (MCF7) was 2850 nM, the Activity (DCAF11-BRD4 [15]) was “Active” and the Activity (DCAF11-BRD4 [16]) was “Dose-dependent-effect”. For the same molecule, the Activity (MDA-MB-231 [17]) was “Active”, the Activity (DCAF11-BRD4 [18]) was “Active” and the Activity (MDA-MB-231 [19]) was “inactive”. The Activity (DCAF11-BRD4 [20]) was “Active; Degradation Capability Comparable To Dbet6 And Mz1”, the Activity (DCAF11-BRD4 [21]) was “Active” and the IC50 (MDA-MB-468) was 20 nM. The Activity (DCAF11-BRD4 [22]) was “Active”, the Activity (DCAF11-BRD4 [23]) was “Active” and the Activity (DCAF11-BRD4 [24]) was “inactive”. For the same molecule, the Activity (DCAF11-BRD4 [25]) was “Active”, the Activity (MDA-MB-231 [26]) was “Active” and the Activity (DCAF11-BRD4 [27]) was “Active”. The Activity (DCAF11-BRD4 [28]) was “Active”, the Activity (DCAF11-BRD4 [29]) was “Active” and the IC50 (MDA-MB-231 [1]) was 70 nM. For the same molecule, the Activity (DCAF11-BRD4 [30]) was “inactive”, the IC50 (BT-549) was 6370 nM and the IC50 (HCC1937) was 180 nM. The Activity (HEK293T [31]) was “inactive” and the Activity (DCAF11-BRD4 [32]) was “Active”.

For `Cc1ccc(OCC(=O)NCCCOCCOCCOCCCNC(=O)C[C@@H]2N=C(c3ccc(Cl)cc3)c3c(sc(C)c3C)-n3c(C)nnc32)c(/C=C2\C(=O)Nc3ccc(Br)cc32)c1` (stereo in doubt), the Activity (DCAF11-BRD4 [3]) was over 35% and the Activity (HEK293T [2]) was “inactive”.
